Measurements: paper PMC3901304 (ACS medicinal chemistry letters, 2013)

System: T. gondii cells in culture
Assay: Toxoplasma cell culture study
Format: cell-based, Toxoplasma gondii
Conditions: for T. gondii in cells at Day 4: no drug control 1140000; for T. gondii in media at Day 4: no drug control 3710000

Nc1nc2[nH]c3cccc(Sc4ccc5ccccc5c4)c3c2c(=O)[nH]1 [Compound 1]
T. gondii in cells at Day 4 (compound at 5 μM): 340000 | T. gondii in media at Day 4 (compound at 5 μM): 2350000

Nc1nc2[nH]c3cccc(Sc4ccccc4)c3c2c(=O)[nH]1 [Compound 2]
T. gondii in cells at Day 4 (compound at 5 μM): 140000 | T. gondii in media at Day 4 (compound at 5 μM): 100000

Nc1nc2[nH]c3cccc(Sc4cccc5ccccc45)c3c2c(=O)[nH]1 [Compound 3]
effect on T. gondii in culture compared with PM (3 at 5 μM versus PM at 3 μM): equivalent to PM at 3 μM | T. gondii in cells at Day 4 (compound at 5 μM): <2500 | T. gondii in media at Day 4 (compound at 5 μM): <25000

CCc1nc(N)nc(N)c1-c1ccc(Cl)cc1 [PM, pyrimethamine, reference compound]
T. gondii in cells at Day 4 (PM at 3 μM): <2500 | T. gondii in media at Day 4 (PM at 3 μM): <25000
